The values below are quoted from earlier work in US9884040B2, “Desethylamiodarone for use in cancer treatment” (PÉCSI TUDOMÁNYEGYETEM, priority 2015, dated 2018).

Each structure is given as a SMILES string. Where only a bound is given, the exact number is not on record here.

The conditions of this data set: in vivo; cited from earlier work.

For `CCCCc1oc2ccccc2c1C(=O)c1cc(I)c(OCCN(CC)CC)c(I)c1` [amiodarone], the Recommended therapeutic range was less than 5.7 µM.
